# Measured values: PMC9653173, “Trotabresib (CC-90010) in combination with adjuvant temozolomide or concomitant temozolomide plus radiotherapy in patients with newly diagnosed glioblastoma” (Neuro-Oncology Advances, 2022)
# Where two headings read alike, the source gives them in different places.
# Key:
# [1] = Trotabresib plasma pharmacokinetics, CC-90010-GBM-002; format: in vivo, human; settings: for Cmax: read-out: Cmax, GM (GCV%)
# Experimental: The sample size was not based on strict statistical power calculations. Safety, efficacy, and pharmacodynamic analyses were summarized using descriptive statistics. Plasma pharmacokinetic parameters were calculated by the noncompartmental analysis method from plasma concentration–time profiles.
# HEXIM1 mRNA = assay: Blood HEXIM1 mRNA pharmacodynamics; format: in vivo, human
# From the text: Plasma samples were collected during the first treatment cycle for investigation of trotabresib pharmacokinetics and pharmacodynamics. Plasma pharmacokinetic parameters assessed included peak plasma concentration (Cmax), time to peak plasma concentration (tmax), area under the plasma concentration–time curve (AUC), and terminal half-life (t½). Pharmacodynamic markers assessed included blood levels of CCR1 and HEXIM1 mRNA, which are established markers of BET inhibitor target engagement.[17],[22],[37],[38]
# [2] = design: method as in PMID 36455228; settings: recurrent high-grade glioma, trotabresib 30 mg/day on days 1–4 before surgery; cited from earlier work
compound,measurement,setting,value
Cn1cc(-c2cc(S(C)(=O)=O)ccc2OCC2CC2)c2ccccc2c1=O [Trotabresib],Reduction in plasma trotabresib concentration,[1]; 168 hours post-dose,> 75%
same,mean t½,"[1]; all cohorts, standard deviation ± 27.2",~ 74 h
same,Increase in exposure with dose,"[1]; both treatment settings, 15-45 mg",proportional to dose
same,Cmax,"[1]; human, plasma, oral, adjuvant trotabresib 15 mg + TMZ, Day 1",201 ng/mL
same,Tmax,"[1]; human, plasma, oral, adjuvant trotabresib 15 mg + TMZ, Day 1, read-out: tmax, median (range)",1 h
same,Cmax,"[1]; human, plasma, oral, adjuvant trotabresib 15 mg + TMZ, Day 4",433 ng/mL
same,Tmax,"[1]; human, plasma, oral, adjuvant trotabresib 15 mg + TMZ, Day 4, read-out: tmax, median (range)",1.5 h
same,Cmax,"[1]; human, plasma, oral, adjuvant trotabresib 30 mg + TMZ, Day 1",306 ng/mL
same,Tmax,"[1]; human, plasma, oral, adjuvant trotabresib 30 mg + TMZ, Day 1, read-out: tmax, median (range)",2 h
same,Cmax,"[1]; human, plasma, oral, adjuvant trotabresib 30 mg + TMZ, Day 4",822 ng/mL
same,Tmax,"[1]; human, plasma, oral, adjuvant trotabresib 30 mg + TMZ, Day 4, read-out: tmax, median (range)",1.5 h
same,Cmax,"[1]; human, plasma, oral, adjuvant trotabresib 45 mg + TMZ, Day 1",522 ng/mL
same,Tmax,"[1]; human, plasma, oral, adjuvant trotabresib 45 mg + TMZ, Day 1, read-out: tmax, median (range)",2 h
same,Cmax,"[1]; human, plasma, oral, adjuvant trotabresib 45 mg + TMZ, Day 4",1160 ng/mL
same,Tmax,"[1]; human, plasma, oral, adjuvant trotabresib 45 mg + TMZ, Day 4, read-out: tmax, median (range)",1.5 h
same,half-life,"[1]; human, plasma, oral, all cohorts, standard deviation ± 27.2, read-out: mean t½ (converted)",74.2 h
same,Cmax,"[1]; human, plasma, oral, concomitant trotabresib 15 mg + TMZ + RT, Day 1",167 ng/mL
same,Tmax,"[1]; human, plasma, oral, concomitant trotabresib 15 mg + TMZ + RT, Day 1, read-out: tmax, median (range)",2 h
same,Cmax,"[1]; human, plasma, oral, concomitant trotabresib 15 mg + TMZ + RT, Day 4",383 ng/mL
same,Tmax,"[1]; human, plasma, oral, concomitant trotabresib 15 mg + TMZ + RT, Day 4, read-out: tmax, median (range)",1.3 h
same,Cmax,"[1]; human, plasma, oral, concomitant trotabresib 30 mg + TMZ + RT, Day 1",309 ng/mL
same,Tmax,"[1]; human, plasma, oral, concomitant trotabresib 30 mg + TMZ + RT, Day 1, read-out: tmax, median (range)",2 h
same,Cmax,"[1]; human, plasma, oral, concomitant trotabresib 30 mg + TMZ + RT, Day 4",874 ng/mL
same,Tmax,"[1]; human, plasma, oral, concomitant trotabresib 30 mg + TMZ + RT, Day 4, read-out: tmax, median (range)",1.5 h
same,Tmax,"[1]; human, plasma, oral, day 4, all cohorts, read-out: tmax",0.5 to 4 h
same,Duration of HEXIM1 mRNA elevation,"HEXIM1 mRNA; RP2D 30 mg, cycle 1",remained above baseline until 168 h post-dose
same,Increase in blood HEXIM1 mRNA expression,"HEXIM1 mRNA; RP2D 30 mg, days 3 and 4, adjuvant and concomitant cohorts",2.5- to 4.0 fold
same,HEXIM1 modulation vs dose,HEXIM1 mRNA; both cohorts,increased with trotabresib dose
same,Brain tumor tissue:plasma ratio,[2],0.84
